Test [1] concerns fibroblast monolayers. Nature of the test: Influx/uptake of ^3 H-FC (free cholesterol) from labeled LDL (or plasma, HDL) into normal fibroblast monolayers. Format: cell-based, human. Details: Emax: dose or concentration left out as unconfirmed. Conditions: for effect on uptake of ^3 H-FC from LDL: up to 60 μM; for FC Influx: LDL-FC 60.2 μg ml^-1, 60 min, 37° C., 30 min preequilibration with inhibitor at: Na-azide 1 mM, NH4-vanadate 1 mM, NEM 2 mM, KNO3 50 mM, progesterone 30 μM, forskolin 30 μM, IBMX 100 μM, chloroquine 20 μM; for FC Influx, % (PBS only = 100.0): same concentrations and conditions as Table 3 FC influx, 60 min; for inhibition at higher concentration (words): up to 100 μM; for effect on LDL FC uptake: Table 3 conditions.

The test system of test [2] is fibroblast monolayers. Nature of the test: Transfer of intracellular ^3 H-FC to the cell surface (cholesterol oxidase accessibility). Format: cell-based, human. As to conditions: for % transfer of intracellular ^3 H-FC to the cell surface, relative to rate in absence of inhibitor: NEM 2 mM, KNO3 50 mM, nocodazole, brefeldin A, vinblastine 40 μM, pulse labeled 2 min 31° C., then 30 min 31° C. On the procedure: This assay utilized the finding (see Example 1) that only FC in the caveolar fraction of the plasma membrane fraction was modified by cholesterol oxidase in unfixed fibroblast monolayers.
The rate at which intracellular LDL-derived ^3 H-FC became accessible at the cell surface was measured as follows. Cell monolayers were labeled with ^3 H-FC LDL under the conditions shown for each experiment. Unbound and adsorbed LDL were removed as described above. In some experiments metabolic inhibitors of different transport steps were then added for 30 min at 15° C. […] Cholesterol oxidase (Boehringer-Manheim, Indianapolis, Ind., USA) was added in PBS to a final concentration of 1 U ml^-1. Incubation was for 4 h at 0° C. The cells were washed with ice-cold PBS, and extracted with 0. 1N NAOH. Cell total lipid was extracted with chloroform-methanol (1:1 v/v). […] .
Fibroblast monolayers were prelabeled with FC-labeled LDL for 2 min at 31° C. Medium and surface-bound labeled LDL were removed as described above. The cells were incubated with inhibitors of intracellular transport for 30 min at 15° C. Movement of FC label to the cell surface remained negligible (FIG. 11).
^a Relative to rate in the absence of inhibitor. Values are expressed

The test system of test [3] is fibroblast monolayers. Nature of the test: D2O-Ficoll density gradient fractionation of ^3 H-FC labeled fibroblasts. Format: cell-based, human. As to conditions: clathrin fraction d 1.12 g ml^-1; NEM 2 mM. On the procedure: Early endosomal vesicles were labeled with LDL-derived ^3 H-FC by a modification of procedures described by Woodman & Warren (1991) J. Cell Biol., 112:1133-1141. Fibroblast monolayers in 10 cm dishes were washed in ice-cold PBS. The cells were labeled by incubation (2 h, 4° C.) with ^3 H-FC LDL. The monolayers were washed in PBS and brought to 31° C. for 0-15 min. The cells were then quickly chilled on ice, and cold unlabeled LDL was added (15 min, 4° C.) to displace any remaining surface-bound labeled LDL and all subsequent steps were carried out at 0-4° C.
Cells from three 10 cm dishes were used for each gradient. Monolayers were washed with 140 mM sucrose, 0.5 mM MgCl2, 1 mM EGTA, 20 mM 2-[N-morpholino]ethanesulfonic acid (MES), 70 mM potassium acetate, pH 6.6 (`vesicle buffer`) (Woodman & Warren, supra.). The cells were scraped from the dishes. Dithiothreitol (1 mm) and protease inhibitors (PMSF, 200 μg ml^-1; benzamidine 0.5 mM; soybean trypsin inhibitor 10 μg ml^-1; leupeptin 1 μg ml^-1) were added. The cells were broken with a Dounce homogenizer (15 strokes) and the homogenate centrifuged at 500× g for 5 min. Ribonuclease A (50 μg ml^-1) was added. After 30 min a second centrifugation was carried out (7000× g, 30 min). Supernatant (~2 ml) was layered on a 10 ml continuous gradient of 2% Ficoll-9% D2 O to 20% Ficoll-90% D2 O in vesicle buffer containing 1 mM dithiothreitol. Centrifugation in a Beckman SW41 rotor was carried out at 80,000× g for 16 h. Fractions (~0.6 ml) were collected dropwise and the distribution of FC label determined. Because of slight variation in fraction size between gradients, data were normalized to 20 fractions for comparison between experiments. Solution density was determined gravimetrically using 100 μl portions of each fraction. The density of a given fraction was reproducible ±0.5% between experiments.
Fibroblast monolayers were incubated with ^3 H-FC LDL for 30 min at 31° C. to predominantly label the intermediate density vesicle fraction. Cell surface LDL was removed as described above. […]

Test [4] deals with fibroblast monolayers. Nature of the test: Cholesterol efflux from ^3 H-cholesterol labeled fibroblasts to plasma. Format: cell-based, human. On the procedure: Fibroblast monolayers were equilibrated with ^3 H-FC-labeled native plasma or with isolated ^3 H-labeled LDL, as specified for each experiment. Following incubation, the dishes were washed with albumin-complete PBS and then (×4) with complete PBS. They were then incubated for 3 min with unlabeled plasma or lipoprotein fractions and the rate of appearance of radioactivity in the medium determined. Samples of medium (100 μl) were immediately chilled in ice water and centrifuged (10 min, 2000× g) at 0-2° C. ^3 H-cholesterol radioactivity in the supernatant was either assayed directly, or fractionated by agarose gel electrophoresis. FC efflux was linear as previously reported (Kawano et al., Biochemistry, 32: 5025-5028 (1993)).
For electrophoresis, 20 μl portions of labeled medium were added to strips of 0.75% w/v agarose in 0.025M barbital buffer (pH 8.6) and separated as previously described (Fielding et al., Biochemistry, 30: 8551-8557 (1991)). 2.5 mm gel fractions were then collected, and radioactivity measured. The location of major lipoprotein classes was determined from strips run simultaneously with whole native plasma equilibrated (60 min, 37° C.) with ^3 H-FC.
^c Percent loss of label from cells prelabeled (10 min, 37° C.

Test [5] has as its system LDL-receptor deficient cells (GM 2000 line). Nature of the test: Influx of ^3 H-FC from LDL into LDL-receptor-deficient fibroblasts (GM 2000).
Where [6] appears, read: Homo sapiens, Fibroblast, read-out: Influx of 3H-FC, % Remaining.

As for `CO/C1=C\C(C)=C\[C@@H](C)[C@@H](O)[C@@H](C)C/C(C)=C/C=C/[C@H](OC)[C@@H]([C@@H](C)[C@@H](O)[C@H](C)[C@@]2(O)C[C@@H](O)[C@H](C)[C@@H](C(C)C)O2)OC1=O` [Bafilomycin A1], the “inhibition of LDL-FC pathway (summary, words)” value (from here on “inhibition of LDL-FC pathway”) in test [1] is reported as “inhibited”. For the same molecule, the activity at 45 µM in test [1] (setting [6]) came out at 70 ± 4%. The Emax in test [1] (Homo sapiens, Fibroblast, read-out: maximal effect on uptake of FC from LDL) turned out to be 30%.
Regarding `C[C@H]1CCC/C=C/[C@@H]2C[C@H](O)C[C@H]2[C@H](O)/C=C/C(=O)O1` [Brefeldin A], in test [1], the “inhibition of LDL-FC pathway” value is “not inhibited” and the “effect on uptake of ^3 H-FC from LDL” value is given as “without effect”. In addition, in test [2], the “transport of intracellular ^3 H-FC to the cell surface/caveolae” value (shortened to “transport … to the cell surface/caveolae”) is “unaffected” and the “% transfer of intracellular ^3 H-FC to the cell surface, relative to rate in absence of inhibitor” value was 95 ± 5%.
On to `CCN(CC)CCCC(C)Nc1ccnc2cc(Cl)ccc12` (stereo not shown) [Chloroquine], for which, in test [1], the “LDL-FC influx (discussion, words)” value is reported as “no effect”; the “FC Influx” value is 1.34 ± 0.04 µg; the “FC Influx, % (PBS only = 100.0)” value came to 102.3%.
Regarding `C=C1C(C)C2C(Cc3ccccc3)NC(=O)C23C(OC(C)=O)/C=C/C(C)(O)C(=O)C(C)CC=CC3C1O` (stereo not shown) [Cytochalasin D], the “inhibition of LDL-FC pathway” value in test [1] is “inhibited”. Further, the activity at 40 µM in test [1] (setting [6]) was determined as 38 ± 2%. Also, the inhibition at 40 µM in test [1] (Homo sapiens, Fibroblast, read-out: reduction of uptake of ^3 H-FC from LDL (average)) stood at 65%. Also, the “inhibition at higher concentration (words)” value in test [1] (listed as Cytochalasin) is listed as “No greater inhibition”; in test [1] (listed as cytochalasin D) it was “no increase in inhibition”. In test [2], the “transport … to the cell surface/caveolae” value is given as “no effect”. The “FC label in density gradient” value in test [3] is listed as “A similar result”.
Turning to `O=[N+]([O-])[O-].[K+]` [KNO3], in test [1], the “inhibition of LDL-FC pathway” value is on record as “inhibited”; the “FC Influx” value turned out to be 0.28 ± 0.02 µg; the “FC Influx, % (PBS only = 100.0)” value amounted to 21.0%. Further, the “time course of inhibition of ^3 H-FC transfer compared with NEM (FIG. 8)” value in test [1] (50 mM KNO3, data not shown) is given as “comparable time course”. Also, the “inhibition of uptake of free cholesterol from LDLs (summary)” value in test [1] (NEM or KNO3, Example 1, FIG. 8) is over 80%. Also, the “initial rate of efflux of FC from prelabeled cells to plasma” value in test [4] is given as “increased several-fold”. In test [2], the “transport … to the cell surface/caveolae” value is listed as “inhibited the return of FC to the cell surface, but less effectively than did nocodazole” and the “% transfer of intracellular ^3 H-FC to the cell surface, relative to rate in absence of inhibitor” value came out at 70 ± 4%.
On to `CC[C@@]1([C@@H]2O[C@@H]([C@H]3O[C@@](O)(CO)[C@H](C)C[C@@H]3C)C[C@@H]2C)CC[C@H]([C@]2(C)CC[C@]3(C[C@H](O)[C@@H](C)[C@@H]([C@@H](C)[C@@H](OC)[C@H](C)C(=O)O)O3)O2)O1` [Monensin], for which, in test [1], the “inhibition of LDL-FC pathway” value is given as “inhibited”; the “effect on LDL FC uptake” value is “effective in reducing the selective uptake of FC from LDL”; the “inhibition at higher concentration (words)” value is listed as “no increase in inhibition”. In test [3], the “FC label in density gradient” value was “A similar result”. For the same molecule, the “selective uptake of FC from LDL, LDL-receptor deficient cells” value in test [5] (GM2000) is “Comparable results”.
For the molecule `[NH4+].[O]=[V](=[O])[O-]` [NH4 -vanadate], in test [1], the “inhibition of LDL-FC pathway” value is reported as “not inhibited”; the “FC Influx” value stood at 1.36 ± 0.08 µg; the “effect on LDL FC uptake” value was “without effect”; the “FC Influx, % (PBS only = 100.0)” value turned out to be 103.2%.
On the same counts, the results for `[N-]=[N+]=[N-].[Na+]` [Na-azide] are “not inhibited”, 1.18 ± 0.02 µg, “without effect” and 89.5%.
As to `COC(=O)Nc1nc2ccc(C(=O)c3cccs3)cc2[nH]1` [Nocodazole], in test [1], the “inhibition of LDL-FC pathway” value is recorded as “not inhibited” and the “effect on uptake of ^3 H-FC from LDL” value was “without effect”. The activity at 60 µM in test [1] (Homo sapiens, Fibroblast, cytochalasin D 40 μM, monensin 40 μM, nocodazole 60 μM, bafilomycin A1 45 μM, means ±1 SD of three experiments, read-out: Influx of 3H-FC, % Remaining) came to 101 ± 6%. For the same molecule, in test [2], the “transport … to the cell surface/caveolae” value was “reduced”; the “transport of the vesicles to the plasma membrane (summary, words)” value was “inhibited”; the “% transfer of intracellular ^3 H-FC to the cell surface, relative to rate in absence of inhibitor” value is recorded as 40 ± 1%.
For `CC[C@]1(O)C[C@@H]2CN(CCc3c([nH]c4ccccc34)[C@@](C(=O)OC)(c3cc4c(cc3OC)N(C)[C@H]3[C@@](O)(C(=O)OC)[C@H](OC(C)=O)[C@]5(CC)C=CCN6CC[C@]43[C@@H]65)C2)C1` [Vinblastine], in test [1], the “inhibition of LDL-FC pathway” value is given as “not inhibited” and the “effect on uptake of ^3 H-FC from LDL” value is reported as “without effect”. For the same molecule, the “transport … to the cell surface/caveolae” value in test [2] was “unaffected”. Moreover, the inhibition at 40 µM in test [2] (Homo sapiens, Fibroblast, read-out: % transfer of intracellular ^3 H-FC to the cell surface, relative to rate in absence of inhibitor) came to 100 ± 2%.
`[3H]C1C([3H])[C@@]2(C)C(=CC[C@H]3[C@@H]4CC[C@H]([C@H](C)CCCC(C)C)[C@@]4(C)CC[C@@H]32)C[C@H]1O` (stereo partly shown) [^3 H-FC, 1,2-^3 H-cholesterol]: the “cholest-4-en-3-one fraction of total label” value in test [2] (0-4° C., 4 experiments) is 0.8±0.2%. For the same molecule, in test [2] (31° C., FIG. 11), the “t1/2 of increase in oxidized FC (transfer to cell surface)” value is listed as ~ 2 min. For the same molecule, in test [2] (after 2 min pulse label, 31° C.), the “internalized FC localized to oxidase-sensitive fraction” value is “about 40%”.
Regarding `CC(=O)O[C@H]1C(=O)[C@@]2(C)[C@H]([C@H](OC(=O)c3ccccc3)[C@]3(O)C[C@H](OC(=O)[C@H](O)[C@@H](NC(=O)c4ccccc4)c4ccccc4)C(C)=C1C3(C)C)[C@]1(OC(C)=O)CO[C@@H]1C[C@@H]2O` [taxol], in test [1], the “inhibition of LDL-FC pathway” value is given as “not inhibited” and the “effect on uptake of ^3 H-FC from LDL” value is reported as “without effect”.
As for sodium heparin, the “inhibition of influx of FC from LDL” value is “Approximately 80%” in test [1] (heparin 0.1 mg/ml, normal cells, LDL 150 μg FC ml^-1, 10 min 37° C.) and “Approximately 80%” in test [5] (heparin 0.1 mg/ml, GM 2000 cells).

Values taken from patent US5922554A, “Inhibition of cellular uptake of cholesterol” (The Regents of the University of California, priority 1996, dated 1999).
